“Also recorded” adds a separate entry of the source. Like-named read-outs stand apart in the source and are kept apart here.
What was measured:
PC-3 xenograft = assay: PC-3 prostate cancer xenograft model; type: in vivo, mice; settings: 5, 10 and 15 mg/kg i.p. q.o.d., FIG. 9
Protocol: CX-3543 was tested against a number of cancer xenograft models to determine the in vivo efficacy. HCT-116 and PC-3 tumor-bearing nu/nu or MiaPaCa tumor-bearing SCID mice were administered reference and testing compounds on schedules indicated in figure legends. Tumor measurements were taken with calipers every other day or twice a week starting from the first day of dosing and body weights were measured at the same time points. Tumor volumes were calculated from the standard formula, W^2×L/2. c-MYC mRNA expression was measured with QPCR from all tumor samples following the final dose. 18S ribosomal RNA was used as a housekeeper and also quantified with QPCR.

[1] = Pharmacokinetic/toxicokinetic evaluation in dogs; type: in vivo, beagle dogs; settings: for Accumulation Ratio: Dose 5 to Dose 1 AUC(0-24), 1.2 mg/kg IV; for Tmax / AUC(0-t) / Cmax / half-life: iv, 1.2 mg/kg; for Tmax: median
Protocol: The study was conducted using three (3) test article and one (1) control article group. The control article was the solution (5% dextrose in water) used to dilute the test article prior to administration and was administered at the same volume as the high dose. The test article dosage levels for this study were approximately 12, 3.8, and 1.2 mg/kg. Test and control articles were administered once by intravenous (IV) infusion over approximately a one hour period on five consecutive days. Blood samples for test article blood level analysis was taken as follows (i.e., pk/tk sampling): approximately 1 mL of blood was taken from three male and three female dogs in the low dose group at approximately 20 minutes and 40 minutes from the start of the infusion, and then at the end of infusion (Time 0) and at 5, 10, 15, and 30 minutes, and 1, 2, 4, 8, 12, and 24 hours from the end of the infusion after the first and fifth doses. Also, prior to and immediately after Dose 1 and after Dose 5 for all animals, and for recovery animals prior to necropsy, approximately 5-10 second ECG tracings in a lead II configuration were obtained. Animals were terminated one (1) or 15 days after the last dose. Blood for hematology and clinical chemistry analysis was drawn pre-dose and prior to euthanasia at termination. Following euthanasia, a necropsy was performed to include collection of major organs for microscopic evaluation.
PK/TK: Blood samples for test article blood level analysis were taken. Approximately 1 mL of blood was taken from three males and three females in the low dose group at approximately 20 minutes and 40 minutes from the start of the infusion, and then at the end of infusion (Time 0) and at 5, 10, 15, and 30 minutes, and 1, 2, 4, 8, 12, and 24 hours from the end of the infusion after the first and fifth dose. Plasma (lithium heparin anticoagulant) samples were prepared and analyzed.

[2] = Subacute study of intravenously administered CX-3543 in rats (safety and tolerance); type: in vivo
Protocol: This study determines the safety and tolerance of CX-3543 at three dose levels administered intravenously once daily to rats for five consecutive days. Safety parameters will be monitored through observation, clinical pathology, and microscopic histopathology assessments. Selected animals will also undergo blood sample collection for pharmacokinetic/toxicokinetic evaluation.
The study was conducted using three (3) test and one (1) control article groups. The high and low test article groups and the control group consisted of 28 animals each and were used to assess tolerance. The medium test article group consisted of 64 animals of which 28 animals were used to assess tolerance and 36 animals were used to determine the level of test article in the blood at various time points after the first and fifth doses in the PK/TK portion of the study. The control article was the solution (5% dextrose in water; D5W) used to dilute the test article prior to administration and was administered at the same volume as the high dose test article group. The test article dosage levels for this study were 24, 7.6, and 2.4 mg/kg. Test and control articles were administered by intravenous (IV) injection into a tail vein over one minute on five consecutive days.
Blood samples for test article blood level analysis were taken as follows. […]

CN1CCCC1CCNC(=O)c1cn2c3c(c(N4CCC(c5cnccn5)C4)c(F)cc3c1=O)Oc1cc3ccccc3cc1-2 (stereo not drawn) [CX-3543]
tumor growth inhibition (PC-3 xenograft): inhibits tumor growth; also recorded: significant tumor growth inhibition
AUC(0-inf) ([1]; beagle, dog, plasma, female, 1.2 mg/kg IV infusion, Dose 1, read-out: Mean AUC(0-inf)): 386 ng·h/mL
AUC(0-inf) ([1]; beagle, dog, plasma, male, 1.2 mg/kg IV infusion, Dose 1, read-out: Mean AUC(0-inf)): 317 ng·h/mL
Dose 5 to Dose 1 ratio for AUC(0-24) ([1]; female): 1.1
AUC(0-inf) ([1]; female, Dose 1, 1.2 mg/kg IV, mean): 386.3 ng·h/mL
Accumulation Ratio ([1]; female): 1.1
Tmax ([1]; female, beagle, dog, plasma, Dose 1, 1.2 mg/kg IV): 0.67 h
Tmax ([1]; female, beagle, dog, plasma, Dose 5, 1.2 mg/kg IV): 1 h
AUC(0-t) ([1]; female, beagle, dog, plasma, female, 1.2 mg/kg IV infusion, Dose 1, read-out: Mean AUC(0-24)): 381 ng·h/mL
Cmax ([1]; female, beagle, dog, plasma, female, 1.2 mg/kg IV infusion, Dose 1, read-out: Mean Cmax): 139 ng/mL
half-life ([1]; female, beagle, dog, plasma, female, 1.2 mg/kg IV infusion, Dose 1, read-out: mean terminal half-life (converted)): 3.8 h
AUC(0-t) ([1]; female, beagle, dog, plasma, female, 1.2 mg/kg once daily, Dose 5, read-out: Mean AUC(0-24)): 444 ng·h/mL
Cmax ([1]; female, beagle, dog, plasma, female, 1.2 mg/kg once daily, Dose 5, read-out: mean Cmax): 145 ng/mL
Cmax ([1]; female, beagle, dog, plasma, female, Dose 1, 1.2 mg/kg IV once daily, mean, read-out: Cmax): 139 ng/mL
half-life ([1]; female, beagle, dog, plasma, female, Dose 1, 1.2 mg/kg IV, harmonic mean, read-out: T1/2 (converted)): 3.8 h
AUC(0-t) ([1]; female, beagle, dog, plasma, female, Dose 1, 1.2 mg/kg IV, mean, read-out: AUC(0-24)): 381 ng·h/mL
Cmax ([1]; female, beagle, dog, plasma, female, Dose 5, 1.2 mg/kg IV once daily for 5 days, mean, read-out: Cmax): 145 ng/mL
half-life ([1]; female, beagle, dog, plasma, female, Dose 5, 1.2 mg/kg IV, harmonic mean, read-out: T1/2 (converted)): 5.2 h
AUC(0-t) ([1]; female, beagle, dog, plasma, female, Dose 5, 1.2 mg/kg IV, mean, read-out: AUC(0-24)): 444 ng·h/mL
half-life ([1]; female, beagle, dog, plasma, female, Dose 5, read-out: mean terminal half-life (converted)): 5.2 h
Dose 5 to Dose 1 ratio for AUC(0-24) ([1]; male): 1.2
AUC(0-inf) ([1]; male, Dose 1, 1.2 mg/kg IV, mean): 316.9 ng·h/mL
Accumulation Ratio ([1]; male): 1.2
Tmax ([1]; male, beagle, dog, plasma, Dose 1, 1.2 mg/kg IV): 0.67 h
Tmax ([1]; male, beagle, dog, plasma, Dose 5, 1.2 mg/kg IV): 1 h
AUC(0-t) ([1]; male, beagle, dog, plasma, male, 1.2 mg/kg IV infusion, Dose 1, read-out: Mean AUC(0-24)): 314 ng·h/mL
Cmax ([1]; male, beagle, dog, plasma, male, 1.2 mg/kg IV infusion, Dose 1, read-out: Mean Cmax): 108 ng/mL
half-life ([1]; male, beagle, dog, plasma, male, 1.2 mg/kg IV infusion, Dose 1, read-out: mean terminal half-life (converted)): 3.2 h
AUC(0-t) ([1]; male, beagle, dog, plasma, male, 1.2 mg/kg once daily, Dose 5, read-out: Mean AUC(0-24)): 363 ng·h/mL
Cmax ([1]; male, beagle, dog, plasma, male, 1.2 mg/kg once daily, Dose 5, read-out: mean Cmax): 126 ng/mL
Cmax ([1]; male, beagle, dog, plasma, male, Dose 1, 1.2 mg/kg IV once daily, mean, read-out: Cmax): 108 ng/mL
half-life ([1]; male, beagle, dog, plasma, male, Dose 1, 1.2 mg/kg IV, harmonic mean, read-out: T1/2 (converted)): 3.2 h
AUC(0-t) ([1]; male, beagle, dog, plasma, male, Dose 1, 1.2 mg/kg IV, mean, read-out: AUC(0-24)): 314 ng·h/mL
Cmax ([1]; male, beagle, dog, plasma, male, Dose 5, 1.2 mg/kg IV once daily for 5 days, mean, read-out: Cmax): 126 ng/mL
half-life ([1]; male, beagle, dog, plasma, male, Dose 5, 1.2 mg/kg IV, harmonic mean, read-out: T1/2 (converted)): 5.2 h
AUC(0-t) ([1]; male, beagle, dog, plasma, male, Dose 5, 1.2 mg/kg IV, mean, read-out: AUC(0-24)): 363 ng·h/mL
half-life ([1]; male, beagle, dog, plasma, male, Dose 5, read-out: mean terminal half-life (converted)): 5.2 h
tolerance ([2]; five consecutive daily IV doses, mid- and low-dose levels (7.6 and 2.4 mg/kg)): toxicologically well tolerated
mortality ([2]; high dose animals (24 mg/kg), five day course): approximately 5%

Reference: US7507727B2, “Substituted quinobenzoxazine analogs and methods of using thereof” (Cylene Pharmaceuticals, Inc., priority 2003, dated 2009)
